Several values for one entry are separate records, joined by “and”; a condition that tells them apart may be missing. Equal entries are not always repeated. Entries after “also recorded” stand apart in the source; their conditions may differ.
Experiments:
[1] = Gross examination of vital organs, organ and body weights after treatment; type: in vivo, male athymic Ncr-nu mice; conditions: 50 mg kg-1 daily, s.c., 28 days
Description: (§1) Prostate cancer is second only to lung cancer as the leading cause of death and is the most prevalent cancer amongst men in the USA and Europe and accounts for about a third of all cancers diagnosed each year in men. In the UK, the incidence of prostate cancer has almost doubled over the last 30 years. Similarly, in 1998, it was estimated that more than 334 500 cases were diagnosed and more than 41 800 men died of the disease in the USA (Dijkman and Debruyne, 1996). The prostate gland is under the influence of androgens and often becomes enlarged in older men. […] Localized prostate cancer is curable and although the metastatic form of the disease is difficult to manage, endocrine therapy does reduce the death rate from the disease and is first-line treatment for all patients. In the testis and adrenals, 17-hydroxylase/C17,20 -lyase converts the C21 steroid precursors to the corresponding C19 andro- gens. […] Both T and DHT stimu- late prostatic growth, although DHT plays a much more important role than T in the organogenesis and homeostasis of the prostate (Wilson, 1996). […] Androgen- dependent human prostate cancer xenografts (PC-82) were grown in nude mice and the effects of L-39 (50 mg kg-1 day-1 ) on tumour growth and prostate-specific antigen (PSA) levels were determined after 28 days. […] We also evaluated the pharmacokinetic properties of L-39 in male mice in this investigation. […]

[2] = Solubility in water; type: physicochemical
[3] = molecular target: T1, 5α-reductase in human prostatic microsomes (Homo sapiens, UniProt P31213); assay: 5α-Reductase assay in human prostatic (BPH) microsomes; type: biochemical
T1 sequence (P31213 1-254): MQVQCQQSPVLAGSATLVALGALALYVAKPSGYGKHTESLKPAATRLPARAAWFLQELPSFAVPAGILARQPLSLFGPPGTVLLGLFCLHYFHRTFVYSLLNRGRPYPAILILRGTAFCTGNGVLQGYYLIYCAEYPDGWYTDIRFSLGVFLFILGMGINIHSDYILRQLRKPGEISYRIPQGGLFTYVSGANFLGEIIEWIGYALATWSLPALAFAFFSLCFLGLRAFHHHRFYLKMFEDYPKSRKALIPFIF
Description: (§2) Prostate cancer is second only to lung cancer as the leading cause of death and is the most prevalent cancer amongst men in the USA and Europe and accounts for about a third of all cancers diagnosed each year in men. In the UK, the incidence of prostate cancer has almost doubled over the last 30 years. Similarly, in 1998, it was estimated that more than 334 500 cases were diagnosed and more than 41 800 men died of the disease in the USA (Dijkman and Debruyne, 1996). The prostate gland is under the influence of androgens and often becomes enlarged in older men. […] Localized prostate cancer is curable and although the metastatic form of the disease is difficult to manage, endocrine therapy does reduce the death rate from the disease and is first-line treatment for all patients. In the testis and adrenals, 17-hydroxylase/C17,20 -lyase converts the C21 steroid precursors to the corresponding C19 andro- gens. […] Both T and DHT stimu- late prostatic growth, although DHT plays a much more important role than T in the organogenesis and homeostasis of the prostate (Wilson, 1996). Current endocrine therapies such as orchidectomy and luteinizing hormone releasing hormone (LHRH) agonists result in reduced androgen production by the testis and are useful in the early stages of prostate cancer. However, these treatment options fail to alter androgen production by the adrenals that may contribute androgen precursors to the prostate. The addition of flutamide, an anti-androgen to inhibit the action of androgens on the prostate, is only partially effective as the disease frequently progresses due to mutations in the androgen receptor, which can utilize flutamide as an agonist. […] Androgen- dependent human prostate cancer xenografts (PC-82) were grown in nude mice and the effects of L-39 (50 mg kg-1 day-1 ) on tumour growth and prostate-specific antigen (PSA) levels were determined after 28 days. […] We also evaluated the pharmacokinetic properties of L-39 in male mice in this investigation. […]

[4] = tested on: T and DHT concentrations; assay: Testosterone and DHT RIA in serum and PC-82 tumours of treated mice; type: in vivo, male athymic Ncr-nu mice; conditions: 50 mg kg-1 day-1, s.c., 28 days, P < 0.05
Description: as §1

[5] = tested on: LNCaP human prostate cancer cells; parameters: method as in Long et al, 1999; conditions: ref Long et al, 1999; cited from earlier work
[6] = tested on: prostate-specific antigen (PSA) levels; assay: PSA ELISA in serum and PC-82 tumours of treated mice; type: in vivo, male athymic Ncr-nu mice; conditions: 50 mg kg-1 day-1, s.c., 28 days, P < 0.01
Description: as §1

[7] = tested on: androgen receptors; parameters: method as in Long et al, 1999; conditions: L-39 5 μM, R1881 5 nM, LNCaP cultures; ref Long et al, 1999; cited from earlier work
[8] = molecular target: T2, human testicular microsomal 17α-hydroxylase/C17,20-lyase (Homo sapiens, UniProt P05093); assay: Inhibition of 17α-hydroxylase/C17,20-lyase activity in human testicular microsomes ([3H]-acetic acid release); type: biochemical
T2 construct: Testicular and prostatic microsomes were prepared as described previously; from tissue; host or cells: human testis, microsomal fraction
T2 sequence (P05093 1-508): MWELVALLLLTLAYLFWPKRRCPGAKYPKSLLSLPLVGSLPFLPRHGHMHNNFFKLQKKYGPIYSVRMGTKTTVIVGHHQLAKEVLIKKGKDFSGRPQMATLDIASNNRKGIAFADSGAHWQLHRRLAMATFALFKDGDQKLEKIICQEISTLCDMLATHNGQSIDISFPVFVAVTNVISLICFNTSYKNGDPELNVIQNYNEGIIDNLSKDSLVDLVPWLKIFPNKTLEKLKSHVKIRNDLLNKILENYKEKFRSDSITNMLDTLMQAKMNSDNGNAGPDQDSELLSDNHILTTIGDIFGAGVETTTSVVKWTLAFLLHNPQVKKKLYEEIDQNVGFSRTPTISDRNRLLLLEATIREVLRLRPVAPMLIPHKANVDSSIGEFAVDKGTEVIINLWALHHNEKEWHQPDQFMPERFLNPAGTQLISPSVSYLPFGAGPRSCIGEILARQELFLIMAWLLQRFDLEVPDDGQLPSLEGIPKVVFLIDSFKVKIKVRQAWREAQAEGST
Description: as §2

[9] = tested on: PC-82 human prostate cancer xenografts; assay: Human PC-82 prostate cancer xenograft model: tumour volume and weight; type: in vivo, male athymic Ncr-nu mice
Description: as §2

[10] = tested on: LNCaP human prostatic cells grown as tumours; parameters: method as in Long et al, 1999; conditions: ref Long et al, 1999; cited from earlier work
[11] = Pharmacokinetic studies after a single s.c. or i.v. bolus dose, plasma HPLC; type: in vivo, male Balb/c mice; parameters: AUC0- / Cmax: unit not given here
Description: Prostate cancer is second only to lung cancer as the leading cause of death and is the most prevalent cancer amongst men in the USA and Europe and accounts for about a third of all cancers diagnosed each year in men. In the UK, the incidence of prostate cancer has almost doubled over the last 30 years. Similarly, in 1998, it was estimated that more than 334 500 cases were diagnosed and more than 41 800 men died of the disease in the USA (Dijkman and Debruyne, 1996). The prostate gland is under the influence of androgens and often becomes enlarged in older men. […] Localized prostate cancer is curable and although the metastatic form of the disease is difficult to manage, endocrine therapy does reduce the death rate from the disease and is first-line treatment for all patients. In the testis and adrenals, 17-hydroxylase/C17,20 -lyase converts the C21 steroid precursors to the corresponding C19 andro- gens. […] Both T and DHT stimu- late prostatic growth, although DHT plays a much more important role than T in the organogenesis and homeostasis of the prostate (Wilson, 1996). Current endocrine therapies such as orchidectomy and luteinizing hormone releasing hormone (LHRH) agonists result in reduced androgen production by the testis and are useful in the early stages of prostate cancer. However, these treatment options fail to alter androgen production by the adrenals that may contribute androgen precursors to the prostate. The addition of flutamide, an anti-androgen to inhibit the action of androgens on the prostate, is only partially effective as the disease frequently progresses due to mutations in the androgen receptor, which can utilize flutamide as an agonist. […] This may be achieved through dual inhibition of 17- hydroxylase/C17,20 -lyase and 5-reductase (Li et al, 1992; Klus et al, 1996). […] Androgen- dependent human prostate cancer xenografts (PC-82) were grown in nude mice and the effects of L-39 (50 mg kg-1 day-1 ) on tumour growth and prostate-specific antigen (PSA) levels were determined after 28 days. […] Pharmacokinetic studies were also conducted in male Balb/c mice. […] (c) 2000 Cancer Research Campaign Keywords: 17-hydroxylase/C17,20 -lyase; 5-reductase; androgens; prostate cancer; pharmacokinetics 74 Received 9 November 1999 Revised 4 February 2000 Accepted 10 February 2000 Correspondence to: AM Brodie British Journal of Cancer (2000) 83(1), 74-82 (c) 2000 Cancer Research Campaign doi: 10.1054/ bjoc.2000.1136, available online at http://www.idealibrary.com on *Present address: Department of Pharmaceutical Sciences, Temple University School of Pharmacy, Philadelphia, PA 19140, USA. Present address: School of Pharmaceutical Sciences, Beijing Medical University, China. Effects of L-39 in vitro and in vivo 75 British Journal of Cancer (2000) 83(1), 74-82 (c) 2000 Cancer Research Campaign advanced prostate cancer (Small et al, 1997). […] 5-Reductase occurs in two isoforms namely, type I and type II. The type II isoenzyme is the predominant form in the human prostate. […] In the present investigation, we describe the effects of L-39, a novel androstene derivative, in vitro and on human prostate cancer xenografts in nude mice. We also evaluated the pharmacokinetic properties of L-39 in male mice in this investigation. […] [21-3 H]-17-hydroxy- pregnenolone ([…] ) was prepared in our laboratory as previously described (Njar et al, 1998). [1,2,6,7-3 H]- Testosterone (96.5 Ci mmol-1 ) and [4-14 C]-dihydrotestosterone (56.5 mCi mmol-1 ) were obtained from Dupont (Boston, MA, USA).

[12] = molecular target: T2, human testicular microsomal 17α-hydroxylase/C17,20-lyase; parameters: method as in Nnane et al, 1998; conditions: ref Nnane et al, 1998; cited from earlier work
[13] = intravenous 50 mg kg-1, single bolus, mouse plasma
[14] = subcutaneous 50 mg kg-1, single bolus, mouse plasma
[15] = subcutaneous 100 mg kg-1, single bolus, mouse plasma

## C[C@]12CCC(=O)C=C1CC[C@@H]1[C@@H]2CC[C@]2(C)C(c3ccno3)=CC[C@@H]12 [L-39, 17-(5′-Isoxazolyl)androsta-4,16-dien-3-one]
[1]
  gross examination of liver, kidney, heart and adrenal gland: did not reveal toxicity
  weight of vital organs and body weight: did not change significantly
[2]
  solubility in water: poorly soluble in water
[3]
  type of inhibition of 5α-reductase: competitive
[3]; Lineweaver-Burke slopes, read-out: Ki, inhibition of 5α-reductase
  Ki: 0.028 µM
[3]; T 40 nM, 10 min, pH 7.4, read-out: IC50, inhibition of 5α-reductase
  IC50: 0.033 µM
[4]
  reduction of DHT concentration in PC-82 tumour xenografts: 94%
  reduction of T concentration in PC-82 tumour xenografts: 64%
[5]
  proliferation of LNCaP cells in culture: inhibits proliferation
[6]
  reduction of tumour PSA levels: 50%
[7]
  anti-androgenic activity: binding of labelled R1881 to androgen receptors: preventing the labelled synthetic androgen R1881 (5 n M) from binding to the androgen receptors
[8]
  type of inhibition of 17α-hydroxylase/C17,20-lyase: non-competitive
[8]; Lineweaver-Burke slopes
  Ki: 0.022 µM
[8]; substrate 17-hydroxypregnenolone, 1 h, pH 7.4
  IC50: 0.059 µM
[9]; 50 mg kg-1 daily, s.c., 28 days, vs control
  diminution of PC-82 tumour weights: 70%
[9]; 50 mg kg-1 daily, s.c., control increased twofold
  increase in tumour volume over 28 days: 1.25 fold
[9]; 50 mg kg-1 day-1, s.c., 28 days
  potency in reducing growth of PC-82 tumour xenografts, compared with other therapies: to a similar extent as castration or flutamide treatment
[10]
  growth of LNCaP tumours in male SCID mice: effective at slowing LNCaP human prostatic cells grown in male SCID mice as tumours; also recorded: more effective than flutamide
[11]; initial observations, metabolite not characterized
  metabolism in mice: metabolized to a more polar metabolite
[11]; intravenous 50 mg kg-1
  time after intravenous administration at which L-39 was not detectable in plasma: 4 h
[11]; [13]
  AUC0-: 14.41
  CI (total clearance): 3.47 0.14 l h-1 kg-1 and 3.5 l h-1 kg-1
  Kel (terminal elimination rate constant): 1.05 0.05 h-1 and 1.052 h-1
  MTR: 1.15 h
  T1/2: 0.66 h
  Vd: 3.30 0.13 l kg-1
[11]; [14]
  AUC0-: 4.09
  CI (total clearance): 12.24 0.48 l h-1 kg-1
  Cmax: 1.42
  Kel: 0.46 0.02 h-1
  MTR: 2.52 h
  T1/2: 1.51 h
  Tmax: 0.75 h
  Vd: 26.73 1.04 l kg-1
[11]; [15]
  AUC0-: 4.04
  CI (total clearance): 24.78 1.0 l h-1 kg-1
  Cmax: 1.30
  Kel: 0.53 0.03 h-1
  MTR: 2.41 h
  T1/2: 1.31 h
  Tmax: 1.0 h
  Vd: 46.80 1.84 l kg-1

## CC(C)(C)NC(=O)[C@H]1CC[C@H]2[C@@H]3CC[C@H]4NC(=O)C=C[C@]4(C)[C@H]3CC[C@]12C [finasteride]
[12]
  activity against 17-hydroxylase/C17,20-lyase: no activity
